According to US10450311B2, “Pesticidally active heterocyclic derivatives with sulphur containing substituents” (Syngenta Participations AG, priority 2014, dated 2019):

Assays:
Format in all cases: in vivo
[1] = tested on: Plutella xylostella (Diamond Back Moth); assay: Activity against Plutella xylostella, treated artificial diet; details: 120 h, application rate of 200 ppm, L2 larvae on artificial diet, 5 days after infestation, read-out: effect in at least one of the two categories (mortality or growth inhibition)
Protocol: Example B8: Activity Against Plutella xylostella (Diamond Back Moth)
24-well microtiter plates with artificial diet were treated with aqueous test solutions prepared from 10′000 ppm DMSO stock solutions by pipetting. After drying, the plates were infested with L2 larvae (10 to 15 per well). The samples were assessed for mortality and growth inhibition in comparison to untreated samples 5 days after infestation.

[2] = tested on: Diabrotica balteata (Corn Root Worm); assay: Activity against Diabrotica balteata, sprayed maize sprouts; details: 96 h, application rate of 200 ppm, larvae on maize sprouts, 4 days after infestation
Protocol: Example B2: Activity Against Diabrotica balteata (Corn Root Worm)
Maize sprouts, placed on an agar layer in 24-well microtiter plates were treated with aqueous test solutions prepared from 10′000 ppm DMSO stock solutions by spraying. After drying, the plates were infested with […] (6 to 10 per well). The samples were assessed for mortality 4 days after infestation.

[3] = tested on: Spodoptera littoralis (Egyptian Cotton Leaf Worm); assay: Activity against Spodoptera littoralis, sprayed cotton leaf discs; details: foliar, 72 h, application rate of 200 ppm, L1 larvae on cotton leaf discs, 3 days after infestation, read-out: control (at least one of mortality, anti-feedant effect, growth inhibition)
Protocol: Example B9: Activity Against Spodoptera littoralis (Egyptian Cotton Leaf Worm)
Cotton leaf discs were placed on agar in 24-well microtiter plates and sprayed with aqueous test solutions prepared from 10′000 ppm DMSO stock solutions. After drying the leaf discs were infested with five L1 larvae. The samples were assessed for mortality, anti-feedant effect, and growth inhibition in comparison to untreated samples 3 days after infestation. Control of Spodoptera littoralis by a test sample is when at least one of mortality, anti-feedant effect, and growth inhibition is higher than the untreated sample.

[4] = tested on: Euschistus heros (Neotropical Brown Stink Bug); assay: Activity against Euschistus heros, sprayed soybean leaf; details: 120 h, application rate of 200 ppm, N-2 nymphs on soybean leaf, 5 days after infestation
Protocol: Example B3: Activity Against Euschistus heros (Neotropical Brown Stink Bug)
Soybean leaf on agar in 24-well microtiter plates were sprayed with aqueous test solutions prepared from 10′000 ppm DMSO stock solutions. After drying the leaf were infested with N-2 nymphs. The samples were assessed for mortality 5 days after infestation.

[5] = tested on: Spodoptera littoralis (Egyptian Cotton Leaf Worm); assay: Activity against Spodoptera littoralis, systemic activity; details: 144 h, test rate of 12.5 ppm, in agar, lettuce root uptake, 6 days after infestation
Source text: Example B11: Activity Against Spodoptera littoralis (Egyptian Cotton Leaf Worm), Systemic Activity
(§1) Test compounds were applied by pipette from 10′000 ppm DMSO stock solutions into 24-well plates and mixed with agar. Lettuce seeds were placed on the agar and the multi well plate was closed by another plate which contains also agar. After 7 days the roots have absorbed the compound and the lettuce has grown into the lid plate. The lettuce leafs were now cut off into the lid plate. Spodoptera eggs were pipetted through a plastic stencil on a humid gel blotting paper and the plate closed with it. The samples were assessed for mortality 6 days after infestation.

[6] = tested on: Myzus persicae (Green Peach Aphid); assay: Activity against Myzus persicae, sprayed sunflower leaf discs; details: foliar, 144 h, application rate of 200 ppm, aphid population of mixed ages on sunflower leaf discs, 6 days after infestation
Protocol: Example B5: Activity Against Myzus persicae (Green Peach Aphid)
Sunflower leaf discs were placed on agar in a 24-well microtiter plate and sprayed with aqueous test solutions prepared from 10′000 ppm DMSO stock solutions. After drying, the leaf discs were infested with an aphid population of mixed ages. The samples were assessed for mortality 6 days after infestation.

[7] = tested on: Spodoptera littoralis (Egyptian Cotton Leaf Worm); assay: Activity against Spodoptera littoralis, compound in agar taken up by lettuce; details: 144 h, test rate of 12.5 ppm, lettuce root uptake, 6 days after infestation, read-out: effect in at least one of the three categories (mortality, anti-feedancy, or growth inhibition)
Source text: Example B10: Activity Against Spodoptera littoralis (Egyptian Cotton Leaf Worm)
as §1, with “mortality, anti-feedant effect and growth inhibition in comparison to untreated samples” for “mortality”

[8] = tested on: Aedes aegypti (Yellow Fever Mosquito); assay: whole plant or invertebrate; details: 48 h, test rate of 5 ppm, L2 larvae in 96-well plates, incubation period of 2 days, read-out: effect in at least one of the two categories (mortality or growth inhibition)
Protocol: Example B14: Activity Against Aedes aegypti (Yellow Fever Mosquito)
10 to 15 Aedes larvae (L2) together with a nutrition mixture were placed in 96-well microtiter plates. Test compounds were pipetted into the wells. After an incubation period of 2 days insects were assessed for mortality and growth inhibition.

CCS(=O)(=O)c1cc(-c2ccc(Cl)cc2)ccc1-c1nc2cc(C(F)(F)F)n(C)c(=O)c2n1C [Compound A72, 2-[4-(4-chlorophenyl)-2-ethylsulfonyl-phenyl]-3,5-dimethyl-6-(trifluoromethyl)imidazo[4,5-c]pyridin-4-one]
≥ 80%: percent effect (mortality or growth inhibition) at 200 ppm [1] | mortality at 200 ppm [2] | percent control (mortality, anti-feedant effect or growth inhibition) at 200 ppm [3] | mortality at 200 ppm [4]

CCS(=O)(=O)c1cc(Br)cnc1-c1nc2cc(C(F)(F)F)n(C)c(=O)c2n1C [Compound A21, 2-[5-bromo-3-ethylsulfonyl-2-pyridyl]-3,5-dimethyl-6-(trifluoromethyl)imidazo[4,5-c]pyridin-4-one]
≥ 80%: percent effect (mortality or growth inhibition) at 200 ppm [1] | mortality at 12.5 ppm [5] | mortality at 200 ppm [2] | mortality at 200 ppm [6] | percent control (mortality, anti-feedant effect or growth inhibition) at 200 ppm [3] | mortality at 200 ppm [4] | percent control (mortality, anti-feedancy or growth inhibition) at 12.5 ppm [7]

CCS(=O)(=O)c1cc(-c2ccc(C(F)(F)F)cc2)ccc1-c1nc2cc(C(F)(F)F)n(C)c(=O)c2n1C [Compound A70, 2-[2-ethylsulfonyl-4-[4-(trifluoromethyl)phenyl]phenyl]-3,5-dimethyl-6-(trifluoromethyl)imidazo[4,5-c]pyridin-4-one]
≥ 80%: percent effect (mortality or growth inhibition) at 200 ppm [1] | percent effect (mortality or growth inhibition) at 5 ppm [8] | mortality at 200 ppm [2] | percent control (mortality, anti-feedant effect or growth inhibition) at 200 ppm [3] | mortality at 200 ppm [4]

CCS(=O)(=O)c1cc(-c2ncccn2)ccc1-c1nc2cc(C(F)(F)F)n(C)c(=O)c2n1C [Compound A71, 2-(2-ethylsulfonyl-4-pyrimidin-2-yl-phenyl)-3,5-dimethyl-6-(trifluoromethyl)imidazo[4,5-c]pyridin-4-one]
≥ 80%: percent effect (mortality or growth inhibition) at 200 ppm [1] | mortality at 200 ppm [6] | percent control (mortality, anti-feedant effect or growth inhibition) at 200 ppm [3] | mortality at 200 ppm [4]

CCSc1cc(-n2cc(C(F)(F)F)cn2)cnc1-c1nc2cc(C(F)(F)F)n(C)c(=O)c2n1C [Compound A24, 2-[3-ethylsulfanyl-5-[4-(trifluoromethyl)pyrazol-1-yl]-2-pyridyl]-3,5-dimethyl-6-(trifluoromethyl)imidazo[4,5-c]pyridin-4-one]
≥ 80%: percent control (mortality, anti-feedancy or growth inhibition) at 12.5 ppm [7]

CCS(=O)(=O)c1cc(-c2ccc(C(F)(F)F)cc2)cnc1-c1nc2cc(Br)c(=O)n(C)c2n1C [Compound B3]
≥ 80%: percent effect (mortality or growth inhibition) at 200 ppm [1] | mortality at 200 ppm [2] | mortality at 200 ppm [6] | percent control (mortality, anti-feedant effect or growth inhibition) at 200 ppm [3] | mortality at 200 ppm [4]

CCSc1cc(-c2ccc(C(F)(F)F)cc2)cnc1-c1nc2cc(C(F)(F)F)c(=O)n(C)c2n1C [Compound B5, 2-[3-ethylsulfanyl-5-[4-(trifluoromethyl)phenyl]-2-pyridyl]-3,4-dimethyl-6-(trifluoromethyl)imidazo[4,5-b]pyridin-5-one]
≥ 80%: mortality at 200 ppm [2] | percent control (mortality, anti-feedant effect or growth inhibition) at 200 ppm [3] | mortality at 200 ppm [4]

CCS(=O)(=O)c1cc(-c2cc(C(F)(F)F)ccn2)cnc1-c1nc2cc(C(F)(F)F)n(C)c(=O)c2n1C [Compound A42]
≥ 80%: percent effect (mortality or growth inhibition) at 200 ppm [1] | percent effect (mortality or growth inhibition) at 5 ppm [8] | mortality at 12.5 ppm [5] | mortality at 200 ppm [2] | mortality at 200 ppm [6] | percent control (mortality, anti-feedant effect or growth inhibition) at 200 ppm [3] | mortality at 200 ppm [4] | percent control (mortality, anti-feedancy or growth inhibition) at 12.5 ppm [7]

CCS(=O)(=O)c1cc(-n2ccc(C(F)(F)F)n2)cnc1-c1nc2cc(C(F)(F)F)n(C)c(=O)c2n1C [Compound A27]
≥ 80%: percent control (mortality, anti-feedant effect or growth inhibition) at 200 ppm [3]

CCS(=O)(=O)c1cc(-c2ccc(C(F)(F)F)cc2)cnc1-c1nc2cc(C(F)(F)F)n(C)c(=O)c2n1C [Compound A22, 2-[3-ethylsulfonyl-5-[4-(trifluoromethyl)phenyl]-2-pyridyl]-3,5-dimethyl-6-(trifluoromethyl)imidazo[4,5-c]pyridin-4-one]
≥ 80%: percent effect (mortality or growth inhibition) at 200 ppm [1] | percent effect (mortality or growth inhibition) at 5 ppm [8] | mortality at 12.5 ppm [5] | mortality at 200 ppm [2] | mortality at 200 ppm [6] | percent control (mortality, anti-feedant effect or growth inhibition) at 200 ppm [3] | mortality at 200 ppm [4] | percent control (mortality, anti-feedancy or growth inhibition) at 12.5 ppm [7]

CCSc1cc(-n2ccc(C(F)(F)F)n2)cnc1-c1nc2cc(C(F)(F)F)n(C)c(=O)c2n1C [Compound A26, 2-[3-ethylsulfanyl-5-[3-(trifluoromethyl)pyrazol-1-yl]-2-pyridyl]-3,5-dimethyl-6-(trifluoromethyl)imidazo[4,5-c]pyridin-4-one]
≥ 80%: percent control (mortality, anti-feedant effect or growth inhibition) at 200 ppm [3]

CCS(=O)(=O)c1cc(-c2ccc(C#N)cc2)cnc1-c1nc2cc(C(F)(F)F)n(C)c(=O)c2n1C [Compound A41, 4-[6-[3,5-dimethyl-4-OXO-6-(trifluoromethyl)imidazo[4,5-c]pyridin-2-yl]-5-ethylsulfonyl-3-pyridyl]benzonitrile]
≥ 80%: percent effect (mortality or growth inhibition) at 200 ppm [1] | percent effect (mortality or growth inhibition) at 5 ppm [8] | mortality at 12.5 ppm [5] | mortality at 200 ppm [2] | mortality at 200 ppm [6] | percent control (mortality, anti-feedant effect or growth inhibition) at 200 ppm [3] | mortality at 200 ppm [4] | percent control (mortality, anti-feedancy or growth inhibition) at 12.5 ppm [7]

CCS(=O)(=O)c1cc(-c2cc(F)cc(F)c2)cnc1-c1nc2cc(C(F)(F)F)n(C)c(=O)c2n1C [Compound A28, 2-[5-(3,5-difluorophenyl)-3-ethylsulfonyl-2-pyridyl]-3,5-dimethyl-6-(trifluoromethyl)imidazo[4,5-c]pyridin-4-one]
≥ 80%: percent effect (mortality or growth inhibition) at 200 ppm [1] | percent effect (mortality or growth inhibition) at 5 ppm [8] | mortality at 12.5 ppm [5] | mortality at 200 ppm [2] | percent control (mortality, anti-feedant effect or growth inhibition) at 200 ppm [3] | mortality at 200 ppm [4] | percent control (mortality, anti-feedancy or growth inhibition) at 12.5 ppm [7]
